Assay results reported in patent US6468983B2, “RNase L activators and antisense oligonucleotides effective to treat telomerase-expressing malignancies” (The Cleveland Clinic Foundation, priority 1997, dated 2002).

Legend:
U373-MG cells = test: Combination with cisplatin in vitro, MTT assay; assay type: cell-based, human
Protocol: (§1) FIG. 17. Effect of combining 2-5A-anti-hTR with cisplatin on malignant glioma U373-MG cells in vitro and in vivo. FIG. 17A Tumor cells were treated with 2-5A-anti-hTR (0.5 μM, every 24 hr) mixed with Lipofectamine (1.0 μl/25 μl DMEM) or cisplatin for three days, and their viability was determined by MTT assay. Values represent the means±S.D. FIG. 17B Tumors from U373-MG cells (1.0×10^6 cells in 0.05 ml serum free DMEM and 0.05 ml matrigel) were established subcutaneously in nude mice. After four or five weeks when the tumors were approximately 60-100 mm^3, spA4-anti-hTR (5 nmol/20 μl sterile distilled water) were administrated directly into the tumors daily for 7 days. Cisplatin (1.0 or 5.0 mg/kg/mice) was administered intraperitoneally on Days 1, 3 and 5. Five Mice were used in each treatment group. Tumor volume was then determined using calipers, and the mean sizes ±S.D. were calculated.
To determine if the anti-malignant glioma cell activity of chemotherapeutic agent, cisplatin, could be enhance with SpA4-anti-hTR, a combination therapy protocol was devised (FIG. 17). The point at which 50% cell death was achieved was using 1 microgram per ml of cisplatin plus 0.5 micromolar of SpA4-anti-hTR; whereas in the absence of SpA4-anti-hTR, >10 micrograms per ml of cisplatin were required to achieve 50% cell death (FIG. 17). […] Furthermore, we determined the effect of combining 2-5A-anti-hTR with cisplatin on U373-MG cells in vitro and in vivo. […] The IC50 of cisplatin was reduced from 10.0 to 1.0 μg/ml by combination of spA4-anti-hTR.

U373-MG tumors [1] = test: Combination with cisplatin on subcutaneous tumors in nude mice; assay type: in vivo; settings: cisplatin 1 or 5 mg/kg i.p. Days 1, 3, 5 combined with spA4-anti-hTR 5 nmol intratumoral daily 7 days, versus cisplatin alone
Protocol: as §1
To determine if the anti-malignant glioma cell activity of chemotherapeutic agent, cisplatin, could be enhance with SpA4-anti-hTR, a combination therapy protocol was devised (FIG. 17). […] Furthermore, we determined the effect of combining 2-5A-anti-hTR with cisplatin on U373-MG cells in vitro and in vivo. […]

[2] = test system: renal cell carcinoma cell line, RCC; test: Viable cell count, daily oligonucleotide plus lipofectamine; assay type: cell-based, human; settings: 0.5 micromolar daily plus lipofectamine, 3 days
Protocol: (§2) Cells (10,000/well) were seeded on 96 well tissue culture dishes, and treated every 24 hours. A 10× concentrated mixture of oligonucleotides plus lipofectamine in water was prepared containing 5 micromolar oligonucleotide and 80 microgram per ml lipofectamine™ (Gibco/BRL) and incubated for 10 min at room temperature. Media was removed from the cells, 10 microliters of the oligonucleotide/lipofectamine mixture was added directly to the cultured cells followed by 90 microliters of media plus serum. The media was changed with oligonucleotide/lipofectamine treatments every 24 h. Cells were passaged when the control cells reached confluency, and viable cells were counted after staining with Trypan Blue (GibcoBRL). The numbers of cells treated only with lipofectamine were used as the control to calculate percentages of cell survival or viability.
Similarly, the viability of the breast cancer cell line, MDA468, was reduced by 64% by SpA4-anti-hTR, while the control oligonucleotides reduced cell viability by <20% (FIG. 6). Viability of the human melanoma cell line, A375, was reduced by 43% in three days by SpA4-anti-hTR, while the control oligonucleotides had no effect (FIG. 7). […] Viability of a third human melanoma cell line, SK-MEL-5, was reduced by 43% by SpA4-anti-hTR, with minimal effects by the control oligonucleotides (FIG. 7). Two prostate tumor cells lines, PC3 and DU145, were suppressed by SpA4-anti-hTR treatments by 45% and 60%, respectively (FIGS. 6 and 10). […] The viability of the malignant glioma cell line, U373, was reduced by about 60% in 3 days, with intermediate effects by the control oligonucleotides (FIG. 6). Therefore, the proliferation and survival of every tumor cell type tested was inhibited by SpA4-anti-hTR. […] In contrast, there was no apoptosis detected in the control cells treated with lipofectamine without oligonucleotide (FIG. 12 upper panel).

U251-MG cells = test: Cell viability assay, trypan blue dye exclusion, oligonucleotide in water every 12 hr; assay type: cell-based, human; settings: 5 micromolar every 12 hr; for cell death / effect on viability (in words): 14 days
Protocol: The cytotoxic effect of 2-5A activator antisense complexes on tumor cells was determined using the trypan blue dye exclusion assay. Tumor cells were seeded at 10^4 cells/well (0.1 ml) in 96-well flat-bottomed plates and incubated overnight at 37° C. Then, oligonucleotides (5 micromolar) in water were added into cells every 12 hr. On successive days the cells were harvested and 25% of the total was examined microscopically to determine the percentage of viable cells, another 25% was replated to continue treatment and the remaining 50% were used for the TRAP assay.
Knowing that hTR could be inactivated by the 2-5A antisense treatment, U251-MG cells were treated every 12 hours over a 14 day period with the same three oligonucleotides. 79% of the cells treated with spA4-anti-hTR were killed over the 14 day period with a significant (50%) reduction in cell viability after only 5 days. […] These experiments have since been repeated on a number of occasions with U251-MG cells to test new batches of oligonucleotides, always with the same results. […] Thus, after 14 days from the initial treatment with spA4-anti-hTR, the viability of U251-MG cells, as shown by Trypan-blue exclusion assays, was suppressed in all cases.

telomerase RNA (hTR) = test: RT-PCR for telomerase RNA in oligonucleotide-treated U251-MG cells; assay type: cell-based, human; settings: oligonucleotide 5 μM, 5 hours treatment
Protocol: Chimeric oligonucleotides were synthesised on solid supports and purified as described previously (Torrence et al 1993; Lesiak et al 1993; Xiao et al 1994, 1996; Cirino et al 1997). Tumor cells were seeded at 3×10^5 cells/well (3 ml) in 6-well plates and incubated overnight at 37° C. Cells were then treated with oligonucleotides (5 μM). Five hours later total RNA was isolated by using Trizol solution (GIBCO BRL, Grand Island, N.Y.). Expression of telomerase RNA was determined with RT-PCR. The RNA was reverse transcribed into complementary DNA (cDNA) with random oligos used as a primer, and then the cDNA was diluted three times with buffer 10×PCR buffer (Perkin-Elmer, Norwalk, Conn.) at a final concentration of 1:4. The DNA at each dilution was amplified using primers to antisense and sense sequences on opposite sides of the human telomerase RNA sequence, 5′-[…]-3′ (SEQ ID NO:4) and 5′[…]-3′ […], respectively, or to the GAPDH coding sequence, 5′-[…]-3′ […] and 5′[…]-3′ (SEQ ID NO:7), respectively, producing DNA fragments of 400 bp for telomerase cDNA and 508 bp for the GAPDH cDNA, respectively. The PCR went for 30 cycles (94° C., 1 min; 55° C., 1 min; 72° C., 2 min) for telomerase and 30 cycles (94° C., 1 min; 60° C., 1 min; 74° C., 3 min) for GAPDH. The PCR products were analyzed by 1.2% agarose gel electrophoresis and ethidium bromide staining.
Aliquots of U251-MG cells were treated with the “active” oligonucleotide and the two controls for 5 hours. RNA was then prepared from these cells and subjected to RT-PCR to detect telomerase RNA. […] In contrast, telomerase RNA (hTR) was present in cells treated with the control oligonucleotides; spA2-anti-hTR and spA4-anti-(M6)hTR. Thus, hTR could be selectively destroyed in U251-MG cells. Since the RT-PCR assay is not quantitative, it was not possible to assess whether treatment with the spA2-anti-hTR , which has the fully complementary target sequence, had any antisense effect by itself (see below). […]

U251-MG tumors [3] = test: Subcutaneous xenografts in nude mice, intratumoral oligonucleotide; assay type: in vivo, Balb/c nude mice
Protocol: (§3) U251-MG and U373 MG tumor cells (1.0×10^6 cells in 0.1 ml serum free DMEM and 0.1 ml Matrigel) were injected subcutaneously into the right flank of 8-12 week-old female Balb/c nude mice (5 mice for each treatment group). Tumor growth was monitored using calipers every 2- or 3-days. Tumor volume (V) was calculated as (L×W^2)/2, where L=length (mm) and W=width (mm). Oligonucleotide treatment was initiated when the tumors reached an average tumor volume of 60-100 mm^3 (about four to five weeks after injection). Oligonucleotides (5 nmol/20 microliter sterile distilled water) were administered by injecting them directly into the tumor every 24 hr for 7-14 days. Some experiments included lipofectamine at 1 microliter per 20 microliters final volume of oligonucleotide solution. Mice were sacrificed by cervical dislocation the day after the final injection and the tumors were removed, frozen rapidly and 12 μm sections were prepared for histological studies. During all of these experiments, which were approved by the CCF Research Programs Committee, the animals were housed and handled in accordance with the National Institutes of Health guidelines.

U373 cells = test: Viable cell count (trypan blue), daily oligonucleotide plus lipofectamine; assay type: cell-based, human; settings: U373, 0.5 micromolar daily plus lipofectamine; for cell viability / viable cell numbers reduced by: 7 days
Protocol: as §2

U373-MG tumors [4] = test: Subcutaneous xenografts in nude mice, intratumoral oligonucleotide; assay type: in vivo, Balb/c nude mice; settings: 5 nmol intratumoral daily for 7 days
Protocol: as §3

U251-MG tumors [5] = test: In situ end-labeling (TUNEL) of DNA in subcutaneous xenografts; assay type: in vivo, nude mice; settings: 5 nmol every day for 7 days
Text: FIG. 14. In situ end-labeling of DNA in subcutaneous xenografts of nude mice. After treatment with oligonucleotides (5 nmol, every day) for 7 days, the mice were sacrificed and the subcutaneous mass was removed, frozen, and sectioned on a cryostat. The tumor specimens from U251-MG cells were counterstained by hematoxylin and eosin following the TUNEL technique. Arrows show representatives of tumor cells positive for DNA fragmentation (×400). (above) spA4-anti-(M6)hTR, 7 Day; (below) spA4-anti-hTR, 7 Day.
To further determine whether treatment with oligonucleotides induced apoptosis, tumor cells and tissues were stained by the terminal deoxynucleotidyl transferase (TdT)-mediated DUTP nick end labeling (TUNEL) technique using Apo-Tag kit (peroxidase conjugated) (Oncor Inc., Gaithersburg, Md.). The staining of apoptotic cells was done on U373MG cells. Oligonucleotides with lipofectamine was added to the cells every day. The final concentrations were 0.5 micromolar and 8 microgram/ml for oligo and lipofectamine, respectively. […]
U251-MG and U373 MG tumor cells (1.0×10^6 cells in 0.1 ml serum free DMEM and 0.1 ml Matrigel) were injected subcutaneously into the right flank of 8-12 week-old female Balb/c nude mice (5 mice for each treatment group). Tumor growth was monitored using calipers every 2- or 3-days. Tumor volume (V) was calculated as (L×W^2)/2, where L=length (mm) and W=width (mm). […]

Compound | effect on growth/viability (in words) [2] | cell death / effect on viability (in words) (U251-MG cells) | telomerase RNA (hTR) detected by RT-PCR (telomerase RNA (hTR)) | tumor response (in words) (U251-MG tumors [3]; 14 days treatment) | cell viability / viable cell numbers reduced by (U373 cells) [%] | further results
N.N.[Cl][Pt][Cl] [cisplatin] |  |  |  |  |  | IC50 of cisplatin (U373-MG cells; U373-MG, in combination with spA4-anti-hTR 0.5 μM every 24 hr plus Lipofectamine, three days, MTT): 1.0 µg/mL; cisplatin required to achieve 50% cell death (U373-MG cells; in the absence of SpA4-anti-hTR): > 10 micrograms per ml; cisplatin at which 50% cell death was achieved (U373-MG cells; plus 0.5 micromolar of SpA4-anti-hTR): 1 microgram per ml; cytotoxic effect of cisplatin on subcutaneous tumors (in words) (U373-MG tumors [1]): significantly enhanced
Sp5′A2′p5′A2p-[(Bu)p]2-5′GCG CGG GGA GCA AAA GCA C3′-3′T5′ (antisense GCGCGGGGAGCAAAAGCAC; 5' 2-5A dimer via butanediol linkers, 3'-3' T cap, chemistry not fully specified) [spA2-anti-hTR, control with only two 2′,5′-linked adenylyl residues, defective 2-5A] | no reduction in viability | mild antisense effect | present | lack of response | 42 | cells remained viable (U251-MG cells; over the 14 day treatment period): 80%
Sp5′A2′p(5′A2p)3-[(Bu)p]25′ GCC CGC GGT GCT AAT GCT C3′-3′T5′ (antisense GCCCGCGGTGCTAATGCTC; 5' tetrameric 2-5A via butanediol linkers, 3'-3' T cap, chemistry not fully specified) [spA4-anti-(M6)hTR, control with functional tetrameric 2-5A and six mismatched nucleotides in the antisense cassette] | no reduction in viability | little, if any, cell death | present | lack of response | 43 | tumor growth (in words) (U251-MG tumors [3]; 5 nmol intratumoral daily for 7 days): continued to increase in size; average net weight of the tumors after treatment (U251-MG tumors [3]; 14 days treatment): 92.0 ± 14.7 mg; increase in tumor size during the treatment period (U251-MG tumors [3]; intratumoral daily for 14 days, relative to starting size): 87%; tumor growth (in words) (U373-MG tumors [4]): continued to increase in size; apoptotic cells observed in tumors (TUNEL) (U251-MG tumors [5]): a few apoptotic cells
Sp5′A(2′p5′A)3-Bu2-5′GCC CGG GGT GCA AAT GCA C3′-3′T5′ [spA4-anti-(M3)hTR] |  |  |  |  | 76 | 
Sp5′A(2′p5′A)11-Bu2-5′GCG CGG GGA GCA AAA GCA C3′-3′T5′ (antisense GCGCGGGGAGCAAAAGCAC; 5' 2-5A (A12) via butanediol linkers, 3'-3' T cap, chemistry not fully specified) [spA12-anti-hTR, compound containing twelve 2′,5′-linked adenylyl residues] |  |  |  |  |  | anti-cellular activity compared with spA4-anti-hTR (in words) (U373 cells; after 7 days): considerably more anti-cellular activity
